Like-named read-outs stand apart in the source and are kept apart here.
Experiments:
[1] = Microsomal stability; type: in vitro ADME; details: human, liver microsomes
Description: Microsomal stability was evaluated using human liver microsomes at 10 µM (Table 3). […] Since cytochrome P450 (CYP) enzymes—especially families 1 to 3—play major roles in drug metabolism, CYP inhibition was tested against the human isoforms CYP1A, 2B6, 2C8, 2C9, 2C19, 2D6, and 3A, as recommended by FDA and EMA guidelines. […] Membrane transport proteins, including the ATP-binding cassette (ABC) and solute carrier (SLC) families, affect drug pharmacokinetics and potential drug–drug interactions. The inhibitory effects of compounds 2 and 6 were assessed against five ABC transporters (P-gp, BCRP, MRP1, MRP2, and MRP3) and seven SLC transporters (OAT1, OAT3, OATP1B1, OCT1, OCT2, ASBT, and NTCP).

[2] = Plasma stability in mouse plasma; type: in vitro ADME; details: male CD-1 mouse plasma, 37 °C, read-out: Mouse plasma t1/2 (converted)
Description: Solubility and stability remained unchanged in simulated gastric fluid (SGF) and simulated intestinal fluid (SIF), which mimic gastrointestinal digestion. Intestinal permeability was assessed using a two-chamber system with apical (A, pH 6.5) and basolateral (B, pH 7.4) compartments, representing the luminal and blood/mesenteric lymph sides of the gastrointestinal tract, respectively. […] The efflux ratios for both compounds ranged between 1 and 2, indicating improved permeability relative to the reference compound 1.
Plasma stability was evaluated by M2SV (Lille, France) in duplicate. Male CD-1 mouse plasma (lithium-heparinized; Sera Laboratories International Ltd. BioIVT, West Sussex, UK) was pre-incubated for 10 min at 37 °C before addition of the test compound (final concentration 10 μM, 0.1% DMSO). At 0, 60, 1440, and 2880 min, aliquots were transferred to chilled tubes containing acetonitrile and propranolol (1 μM) as internal standard.

[3] = biological target: T1, S2R (Homo sapiens, UniProt Q5BJF2); assay: S2R competitive radioligand binding, [3H]-DTG with excess (+)-pentazocine, Jurkat cell membranes; details: [3H]-DTG displacement with excess (+)-pentazocine, n = 2
T1 construct: For the S2R assay, Jurkat cell membranes (10–20 μg protein/tube) were incubated at room temperature for 1 h; host or cells: Jurkat cell membranes
T1 sequence (Q5BJF2 whole entry): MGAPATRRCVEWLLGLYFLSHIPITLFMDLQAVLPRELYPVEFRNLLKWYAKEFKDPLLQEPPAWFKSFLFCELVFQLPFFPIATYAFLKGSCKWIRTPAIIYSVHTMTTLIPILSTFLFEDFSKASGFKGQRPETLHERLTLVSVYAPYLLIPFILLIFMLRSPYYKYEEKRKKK
Source text: S1R and S2R affinities were classically evaluated through competitive binding assays using radioligands, following the protocol described by Ganapathy et al.. The selective radioligand [^3H] (+)-pentazocine was employed as the classic prototypical ligand, selectively binding to the orthosteric S1R-binding sites. […] Jurkat cell membranes served as the receptor source in both assays. The equilibrium dissociation constants (Ki) for S1R and S2R were derived from the IC50 values of each compound, and selectivity ratios (S2R/S1R) were subsequently calculated (Table 1, Figures S2 and S3).
Binding assays were performed by Eurofins Cerep (Poitiers, France) according to the protocol of Ganapathy. […] For the S2R assay, Jurkat cell membranes (10–20 μg protein/tube) were incubated at room temperature for 1 h in the same buffer with [^3H]-DTG (25 nM) in the presence of (+)-pentazocine (1 μM) to saturate S1R, along with a range of test compound concentrations. Bound radioactivity was quantified by liquid scintillation counting. Nonspecific binding was determined under identical conditions in the presence of 10 μM unlabeled haloperidol. The IC50 values (concentration causing a half-maximal inhibition of control-specific binding) and Hill coefficients (nH) were determined by non-linear regression analysis of the competition curves generated with mean replicate values using Hill equation curve-fitting. This analysis was performed using software developed at Cerep (Hill software) and validated by comparison with data generated by the commercial software SigmaPlot ®4.0 for Windows® (©1997 by SPSS Inc.). Inhibition constants (Ki) were calculated from IC50 values using the method of Cheng and Prusoff.

[4] = biological target: T2, S1R-BiP complex (Cricetulus griseus, UniProt A0A3L7I3A5); assay: S1R-BiP complex dissociation, co-immunoprecipitation and BiP ELISA in CHO cells; type: cell-based; details: for Dissociation of the S1R-BiP complex (in words): 1 and 10 µM, 30 min incubation, CHO cells, n = 6
T2 construct: host or cells: CHO cells
T2 sequence (A0A3L7I3A5 1-223, one chain of several): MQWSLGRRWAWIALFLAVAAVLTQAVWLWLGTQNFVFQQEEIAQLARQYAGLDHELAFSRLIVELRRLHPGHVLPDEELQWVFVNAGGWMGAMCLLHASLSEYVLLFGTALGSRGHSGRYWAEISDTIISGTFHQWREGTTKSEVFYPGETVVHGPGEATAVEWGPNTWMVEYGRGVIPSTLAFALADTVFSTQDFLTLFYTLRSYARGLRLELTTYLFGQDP
Description: The interaction between S1R and BiP provides a reliable assay to identify S1R ligands by monitoring the dynamics of the S1R-BiP complex. In this assay, the known S1R agonist PRE-084 and antagonist NE-100 were used as controls (Figure 3).
The ability of the compounds to promote dissociation of the S1R–BiP complex was assessed by Amylgen (Montferrier-sur-Lez, France) as described in [22, 23]. CHO cells were treated with the test compounds for 30 min at 37 °C, followed by crosslinking with dithiobis(succinimidyl propionate) (DSP; Thermo Scientific, Waltham, MA, USA). Cells were lysed after 15 min on ice, and the lysates were centrifuged. Supernatants were incubated overnight at 4 °C with an anti-S1R antibody (Abcam, Cambridge, UK), and then with Protein A-Sepharose (Invitrogen). After the first centrifugation, pellets were resuspended in radioimmunoprecipitation assay (RIPA) buffer, centrifuged again, and resuspended in 2× sample buffer/bMCE buffer. Following a third centrifugation, the supernatants were analyzed for BiP immunoreactivity using an ELISA kit (SEC343Mu, USCNK Life Sciences, Wuhan, China).
Figure 3 In vitro evaluation of agonist activity of compounds 2, 3, and 6: The effects of compounds 2, 3, and 6 at 1 and 10 µM on the S1R-BiP association after 30 min of incubation were analyzed by co-immunoprecipitation using an anti-S1R antibody (red). BiP levels were quantified by ELISA. PRE-084 (white) and NE-100 (black) served as the reference agonist and antagonist, respectively (10 µM). Agonist activity was confirmed by its blockade with NE-100 (black hatching). […] Data represent the mean ± SEM from n = 6 per condition. Statistical significance was assessed using Dunnett’s test: *** p < 0.0001, * p < 0.05 vs. untreated control; ### p < 0.0001, # p < 0.05 for NE-100 blockade.

[5] = biological target: T3, hERG channel (Homo sapiens, UniProt Q12809); assay: hERG automated whole-cell patch-clamp in hERG CHO-K1 cells; type: cell-based; details: for hERG inhibition IC50 / IC50: tail current, hERG CHO-K1 cells, 0.1 to 10 µM, n = 2; for IC50: read-out: hERG inhibition IC50
T3 construct: host or cells: CHO-K1
T3 sequence (Q12809 whole entry): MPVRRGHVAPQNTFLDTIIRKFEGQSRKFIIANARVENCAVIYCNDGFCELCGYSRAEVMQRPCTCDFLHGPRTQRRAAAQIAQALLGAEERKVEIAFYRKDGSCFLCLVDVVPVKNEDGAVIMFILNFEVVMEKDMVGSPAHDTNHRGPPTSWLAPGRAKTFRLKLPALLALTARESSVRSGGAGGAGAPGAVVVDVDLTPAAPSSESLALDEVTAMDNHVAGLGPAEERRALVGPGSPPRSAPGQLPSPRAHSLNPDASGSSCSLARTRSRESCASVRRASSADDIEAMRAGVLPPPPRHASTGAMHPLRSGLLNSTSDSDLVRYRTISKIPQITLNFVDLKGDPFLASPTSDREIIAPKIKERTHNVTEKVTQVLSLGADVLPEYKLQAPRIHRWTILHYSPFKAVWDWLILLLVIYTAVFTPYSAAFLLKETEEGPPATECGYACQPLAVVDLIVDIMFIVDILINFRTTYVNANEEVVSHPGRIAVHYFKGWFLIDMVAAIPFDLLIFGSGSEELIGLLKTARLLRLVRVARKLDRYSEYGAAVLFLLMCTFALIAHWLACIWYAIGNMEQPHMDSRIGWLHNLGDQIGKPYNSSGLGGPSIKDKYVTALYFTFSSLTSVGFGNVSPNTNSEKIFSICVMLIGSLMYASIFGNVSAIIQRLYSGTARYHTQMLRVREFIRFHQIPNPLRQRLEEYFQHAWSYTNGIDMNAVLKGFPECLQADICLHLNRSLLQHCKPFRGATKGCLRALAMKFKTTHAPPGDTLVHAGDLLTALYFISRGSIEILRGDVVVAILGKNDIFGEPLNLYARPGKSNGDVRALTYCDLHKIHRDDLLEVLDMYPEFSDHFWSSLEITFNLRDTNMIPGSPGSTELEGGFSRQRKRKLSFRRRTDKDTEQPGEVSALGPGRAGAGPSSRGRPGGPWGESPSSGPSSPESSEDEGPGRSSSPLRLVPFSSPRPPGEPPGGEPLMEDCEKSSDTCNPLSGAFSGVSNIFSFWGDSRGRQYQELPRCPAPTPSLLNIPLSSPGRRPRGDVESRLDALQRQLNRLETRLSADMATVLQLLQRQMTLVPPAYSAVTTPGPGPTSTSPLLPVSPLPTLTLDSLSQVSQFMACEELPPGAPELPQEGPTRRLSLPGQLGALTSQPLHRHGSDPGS
Description: Cardiac toxicity is a leading cause of drug development failure. Early safety profiling includes evaluation of the potassium voltage-gated channel subfamily H member 2 (KCNH2 or hERG) channel, the only in vitro assay mandated by regulatory agencies to predict proarrhythmic risk. […] Importantly, an IC50 (hERG)/Ki (σ1) ratio exceeding 100 is advised for cardiac safety; all compounds met this criterion.
Cardiotoxicity analysis was performed by Eurofins Cerep (Poitiers, France) as described in [41]. Rapidly, hERG CHO-K1 cells were used to perform automated whole-cell patch-clamp. Compounds were evaluated in duplicate from 0.1 to 10 µM. The degree of inhibition (%) was determined by measuring the tail current amplitude, which was induced by a one-second test pulse to −40 mV after a two-second pulse to +20 mV, before and after drug incubation for 5 min at room temperature. After normalization, activities were expressed as the % inhibition of tail current. […] The concentration–response relationship of each compound was constructed from the percentage reductions in current amplitude by sequential concentrations.

[6] = n = 2, read-out: Human liver microsome intrinsic clearance

Compound	microsomal CLint at 10 µM [1, 6] [µL/min/mg]	half-life at 10 µM [2] [h]	IC50 [3] [nM]	Dissociation of the S1R-BiP complex (in words) [4]	Dissociation of S1R-BiP complex in the presence of NE-100 (in words) ([4]; co-treatment with NE-100 (10 µM))	hERG inhibition IC50 [5]	IC50 [5] [nM]	half-life at 10 µM ([1]; as in running text, read-out: Human liver microsome half-life) [h]	half-life at 10 µM ([1]; n = 2, read-out: Human liver microsome half-life t1/2) [h]	microsomal CLint at 10 µM ([1]; read-out: Human liver microsome clearance) [µL/min/mg]	IC50 (hERG)/Ki (σ1) ([5]; ratio)
CN(CCC(=O)NCc1cccc(Cl)c1)Cc1ccccc1 [Compound 2, 3-(Benzylmethylamino)-N-(3-chlorobenzyl)propanamide]	135	35	270	significant, dose-dependent dissociation	completely inhibited	micromolar range	6800	–	–	–	–
CN(CCC(=O)NCc1ccc(C#N)cc1)Cc1ccccc1 [Compound 6, 3-(Benzylmethylamino)-N-(4-cyanobenzyl)propanamide]	< 116	> 48	2400	slight and less significant reduction	–	micromolar range	800	> 1	> 1	< 115	143

From PMC12430443, “Discovery of Novel Benzamide-Based Sigma-1 Receptor Agonists with Enhanced Selectivity and Safety” (Molecules, 2025)
